Assay results: PubChem BioAssay (NCI)
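How tested: cells in 96-well plates exposed to compound for 48 hours at five concentrations. TGI denotes the concentration required for complete inhibition of growth.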

Columns and labels:
Test in all cases: NCI tumour cell line growth inhibition, 48 h
HCC-2998 colon = test system: HCC-2998 colon
SF-268 CNS = test system: SF-268 CNS
RPMI-8226 leukemia = test system: RPMI-8226 leukemia
HCT-15 colon = test system: HCT-15 colon
T-47D breast = test system: T-47D breast
M14 melanoma = test system: M14 melanoma
A498 renal = test system: A498 renal
IGROV1 ovarian = test system: IGROV1 ovarian
NCI-H460 lung = test system: NCI-H460 lung
SW-620 colon = test system: SW-620 colon
MDA-N = test system: MDA-N
SN12C renal = test system: SN12C renal
MDA-MB-435 = test system: MDA-MB-435
HOP-92 NSCLC = test system: HOP-92 NSCLC
MOLT-4 leukemia = test system: MOLT-4 leukemia
COLO 205 colon = test system: COLO 205 colon

Structure (SMILES)	TGI (HCC-2998 colon)	TGI (SF-268 CNS)	TGI (RPMI-8226 leukemia)	TGI (HCT-15 colon)	TGI (T-47D breast)	TGI (M14 melanoma)	TGI (A498 renal)	TGI (IGROV1 ovarian)	TGI (NCI-H460 lung)	TGI (SW-620 colon)	TGI (MDA-N)	TGI (SN12C renal)	TGI (MDA-MB-435)	TGI (HOP-92 NSCLC)	TGI (MOLT-4 leukemia)	TGI (COLO 205 colon)
CC1(C)C/C(=N/O)c2c(nc3ccc4ccccc4c3c2-c2ccc(Cl)cc2)C1	43.8 µM	30.1 µM	> 100 µM	41.6 µM	34.2 µM	> 100 µM	39.6 µM	31.6 µM	19.7 µM	77.9 µM	> 100 µM	22.7 µM	> 100 µM	42.2 µM	52.6 µM	72.8 µM
Cc1cc2sc(C)[n+](CCCOS(=O)(=O)[O-])c2cc1C	–	> 100 µM	> 100 µM	> 100 µM	> 100 µM	> 100 µM	> 100 µM	> 100 µM	> 100 µM	> 100 µM	> 100 µM	> 100 µM	> 100 µM	> 100 µM	> 100 µM	> 100 µM
COc1cc(/C=C2\C(=O)N(c3ccccc3Cl)C(c3ccccc3)S2(=O)=O)cc(OC)c1OC (centres undefined)	> 100 µM	> 100 µM	42.9 µM	> 100 µM	> 100 µM	> 100 µM	> 100 µM	–	> 100 µM	> 100 µM	42.5 µM	60.6 µM	> 100 µM	> 100 µM	36.4 µM	> 100 µM
COc1cccc(-c2nc3ccccc3c(=O)[nH]2)c1OC	> 100 µM	> 100 µM	49.4 µM	> 100 µM	> 100 µM	> 100 µM	> 100 µM	> 100 µM	> 100 µM	> 100 µM	> 100 µM	> 100 µM	> 100 µM	–	> 100 µM	> 100 µM
O=C(Nc1ccccc1)n1[nH]c(=O)n(-c2ccccc2)c1=O	> 100 µM	> 100 µM	> 100 µM	> 100 µM	> 100 µM	–	> 100 µM	–	> 100 µM	> 100 µM	> 100 µM	> 100 µM	> 100 µM	> 100 µM	–	> 100 µM
O=[N+]([O-])c1cc2c(c([N+](=O)[O-])c1)NCc1ccccc1O2	> 100 µM	> 100 µM	> 100 µM	> 100 µM	> 100 µM	–	> 100 µM	> 100 µM	> 100 µM	> 100 µM	> 100 µM	> 100 µM	> 100 µM	> 100 µM	> 100 µM	> 100 µM
NC(=S)N/N=C1/CCCC2CCCC[C@@H]12 (some centres undefined)	> 100 µM	> 100 µM	> 100 µM	> 100 µM	> 100 µM	> 100 µM	> 100 µM	> 100 µM	> 100 µM	> 100 µM	> 100 µM	–	> 100 µM	> 100 µM	> 100 µM	> 100 µM
Oc1ccc(Cc2nccc3cc(O)c(O)cc23)cc1O	–	> 100 µM	> 100 µM	> 100 µM	> 100 µM	78.2 µM	> 100 µM	> 100 µM	> 100 µM	> 100 µM	> 100 µM	> 100 µM	> 100 µM	> 100 µM	> 100 µM	51.3 µM
CN(N)/N=N/c1nc[nH]c1[N+](=O)[O-]	> 100 µM	> 100 µM	57.3 µM	> 100 µM	> 100 µM	> 100 µM	> 100 µM	> 100 µM	> 100 µM	> 100 µM	> 100 µM	> 100 µM	> 100 µM	–	54.6 µM	> 100 µM
C=CC[C@@]1([C@H](C=C)COCc2ccc(OC)cc2)CC[C@]2(C)OC(C)(C)[C@@H](c3ccccc3)N2C1=S	> 100 µM	> 100 µM	> 100 µM	> 100 µM	> 100 µM	> 100 µM	> 100 µM	–	> 100 µM	> 100 µM	> 100 µM	> 100 µM	> 100 µM	> 100 µM	> 100 µM	41.6 µM
O=c1n(-c2ccccc2)c(=O)n2n1C1Cc3ccccc3C12 (centres undefined)	–	> 100 µM	> 100 µM	> 100 µM	> 100 µM	> 100 µM	> 100 µM	> 100 µM	> 100 µM	> 100 µM	> 100 µM	> 100 µM	> 100 µM	> 100 µM	> 100 µM	> 100 µM
COc1ccc(OC2OC(COC(c3ccccc3)(c3ccc(OC)cc3)c3ccc(OC)cc3)C(O)C(O)C2O)cc1 (centres undefined)	16.4 µM	11 µM	> 100 µM	46.4 µM	21.4 µM	7.05 µM	25.3 µM	20.2 µM	9.21 µM	14.3 µM	17.2 µM	6.59 µM	13 µM	–	4.55 µM	9.85 µM
Cc1ccc(C(=O)Nc2ccc(CP(=O)(O)O)cc2CP(=O)(O)O)cc1NC(=O)c1cccc(NC(=O)Nc2cccc(C(=O)Nc3cc(C(=O)Nc4ccc(CP(=O)(O)O)cc4CP(=O)(O)O)ccc3C)c2)c1	> 100 µM	> 100 µM	> 100 µM	> 100 µM	> 100 µM	> 100 µM	> 100 µM	> 100 µM	> 100 µM	> 100 µM	> 100 µM	> 100 µM	> 100 µM	–	> 100 µM	> 100 µM
c1ccc2c(c1)cc1c3[nH]c4ccccc4c3ccn21	> 10 µM	> 10 µM	> 10 µM	> 10 µM	> 10 µM	> 10 µM	–	> 10 µM	> 10 µM	> 10 µM	> 10 µM	> 10 µM	> 10 µM	> 10 µM	> 10 µM	3.41 µM
CC(C)=c1sc(=C(C)C)c2c1=NC(C)(C)N=2	> 100 µM	> 100 µM	> 100 µM	> 100 µM	> 100 µM	> 100 µM	> 100 µM	> 100 µM	> 100 µM	> 100 µM	> 100 µM	> 100 µM	> 100 µM	–	> 100 µM	> 100 µM
